Test systems include ACHN renal; BT-549 breast; HOP-92 NSCLC; K-562 leukemia; OVCAR-3 ovarian; OVCAR-5 ovarian; SK-MEL-2 melanoma; SK-MEL-5 melanoma; SK-OV-3 ovarian; UACC-62 melanoma; HOP-62 NSCLC.
Common to all, as to assay: NCI-60 cell line screen, 48 h

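Grown in 96-well plates, cells were treated for 48 hours with each compound at five concentrations. Insufficient inhibition: endpoint recorded as highest concentration tested. The concentration for 50% growth inhibition is given as GI50. The concentration for full growth arrest is given as TGI.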

For the compound `CC(C#N)Nc1ccc(Oc2ccc(C(C)(C)c3ccc(Oc4ccc(NC(C)C#N)cc4)cc3)cc2)cc1` (stereo not drawn), the TGI in the assay on ACHN renal, in the assay with BT-549 breast, in the assay on HOP-92 NSCLC, in the assay on K-562 leukemia, in the assay on OVCAR-3 ovarian and in the assay with OVCAR-5 ovarian was above 100 µM each time. The TGI in the assay with SK-MEL-2 melanoma, in the assay on SK-MEL-5 melanoma, in the assay with SK-OV-3 ovarian and in the assay on UACC-62 melanoma was above 100 µM each time.

As for `COc1c(O)cc(/C=C/c2cc(O)cc3c2[C@@]2(C(=O)O3)c3c(O)cc(O)cc3OC2c2cccc(O)c2)cc1O` (stereo partly drawn), the TGI in the assay on ACHN renal is above 100 µM; in the assay on BT-549 breast it was above 100 µM; with HOP-62 NSCLC it was above 100 µM; in the assay on HOP-92 NSCLC, above 100 µM; with K-562 leukemia it was 91.9 µM; in the assay with OVCAR-3 ovarian, above 100 µM. Besides, the TGI in the assay with SK-MEL-2 melanoma was above 100 µM; in the assay on SK-MEL-5 melanoma it was 72.1 µM; with SK-OV-3 ovarian, 74.8 µM; with UACC-62 melanoma, 72 µM.

As to `Oc1ccccc1C=Nc1ccc(Oc2ccc(Cl)cc2)c(Cl)c1`, the TGI in the assay with ACHN renal is 88.3 µM; in the assay with BT-549 breast it was 44.4 µM; in the assay with HOP-62 NSCLC, 34.7 µM; with HOP-92 NSCLC it was 41.4 µM; in the assay on OVCAR-3 ovarian, 38.5 µM; in the assay with OVCAR-5 ovarian, 79.5 µM. Besides, the TGI with SK-MEL-2 melanoma was 32.4 µM; with SK-MEL-5 melanoma it was 50.9 µM; in the assay with SK-OV-3 ovarian it was 71.2 µM; in the assay on UACC-62 melanoma, 49.6 µM.

For `Cc1[nH]c2ncn(/N=C/c3ccccc3)c(=N)c2c1Cc1ccccc1`, the TGI in the assay on ACHN renal, with BT-549 breast, in the assay with HOP-62 NSCLC, in the assay on HOP-92 NSCLC, in the assay with K-562 leukemia and in the assay with OVCAR-3 ovarian was above 100 µM throughout. Besides, the TGI with OVCAR-5 ovarian, in the assay on SK-MEL-2 melanoma, with SK-OV-3 ovarian and in the assay on UACC-62 melanoma was above 100 µM in each case.

As for `O=c1c2cc(I)ccc2nc(-c2cccs2)n1Nc1ccccc1`, the TGI in the assay on ACHN renal was above 100 µM; in the assay on BT-549 breast, above 100 µM; in the assay on HOP-62 NSCLC, 68.6 µM; in the assay on K-562 leukemia it was 22.9 µM; with OVCAR-3 ovarian, 6.52 µM; in the assay on OVCAR-5 ovarian it was above 100 µM. Moreover, the TGI is 1.63 µM with SK-MEL-2 melanoma, above 100 µM in the assay on SK-MEL-5 melanoma, 74.4 µM with SK-OV-3 ovarian and above 100 µM in the assay on UACC-62 melanoma. The GI50 in the assay with K-562 leukemia is 0.301 µM.

`CN1CC=C(OP(=O)(NCc2ccccc2)N(CCCl)CCCl)CC1` (stereo not drawn): the TGI in the assay with ACHN renal, in the assay with BT-549 breast, with HOP-62 NSCLC, with HOP-92 NSCLC, in the assay with K-562 leukemia and in the assay with OVCAR-3 ovarian was above 100 µM in each case. Besides, the TGI in the assay with OVCAR-5 ovarian, with SK-MEL-2 melanoma, in the assay on SK-OV-3 ovarian and in the assay on UACC-62 melanoma was above 100 µM throughout.

For `CCn1c(=O)c2c(=O)[nH][nH]c2c2ccccc21`, the TGI in the assay on ACHN renal, with BT-549 breast, in the assay with HOP-62 NSCLC, with HOP-92 NSCLC, with K-562 leukemia and in the assay with OVCAR-3 ovarian was above 100 µM in each case. The TGI in the assay with OVCAR-5 ovarian and with SK-MEL-5 melanoma was above 100 µM each time.

Take `CN(CCO)CC(=O)CC(O)(C(F)(F)F)C(F)(F)F`: the TGI in the assay on ACHN renal was 99.4 µM; in the assay on BT-549 breast, above 100 µM; in the assay on HOP-92 NSCLC, 54.2 µM; in the assay with K-562 leukemia it was above 100 µM; with OVCAR-3 ovarian, 87 µM; in the assay with OVCAR-5 ovarian, above 100 µM. The TGI in the assay with SK-MEL-2 melanoma is 95.3 µM; in the assay with SK-MEL-5 melanoma, 31.8 µM; in the assay on SK-OV-3 ovarian, 74.3 µM; in the assay on UACC-62 melanoma, above 100 µM.

For the compound `O=C(Cc1ccccc1)N/N=C(/CCN1CCCC1)CC(c1ccccc1)c1c(O)c2ccccc2oc1=O` (stereo not drawn), the TGI in the assay on ACHN renal, with BT-549 breast, with HOP-92 NSCLC, in the assay on K-562 leukemia, in the assay with OVCAR-3 ovarian and with OVCAR-5 ovarian was above 100 µM in each case. In addition, the TGI in the assay on SK-MEL-2 melanoma, in the assay with SK-MEL-5 melanoma, in the assay with SK-OV-3 ovarian and in the assay on UACC-62 melanoma was above 100 µM each time.

Take `Clc1cc(Cl)cc(N2N=C(c3cccc(Nc4ccncc4)c3)CC2c2ccccc2)c1` (stereo not drawn): the GI50 in the assay with ACHN renal is 1.9 µM; with BT-549 breast, 6.23 µM; in the assay on HOP-92 NSCLC, 1.49 µM; in the assay with OVCAR-5 ovarian, 2.56 µM; in the assay on SK-MEL-5 melanoma, 1.78 µM; in the assay on SK-OV-3 ovarian, 13.1 µM. In addition, the GI50 with UACC-62 melanoma was 1.74 µM. The TGI worked out at 3.89 µM in the assay on ACHN renal; 28.4 µM in the assay with BT-549 breast; 3.07 µM in the assay with HOP-92 NSCLC; 8.74 µM in the assay on OVCAR-5 ovarian; 3.23 µM in the assay on SK-MEL-5 melanoma; 31.9 µM in the assay with SK-OV-3 ovarian. Further, the TGI in the assay on UACC-62 melanoma worked out at 3.24 µM.

With `CC1C2CC(C(C3C(=O)C4CC3C(C)(C)C4C)C2=O)C1(C)C` (stereo not drawn), the TGI in the assay with ACHN renal, in the assay with BT-549 breast, in the assay with HOP-62 NSCLC, in the assay on HOP-92 NSCLC, in the assay on K-562 leukemia and in the assay on OVCAR-3 ovarian was above 100 µM in each case. Besides, the TGI in the assay on OVCAR-5 ovarian, with SK-MEL-5 melanoma, in the assay on SK-OV-3 ovarian and with UACC-62 melanoma was above 100 µM each time.

As to `N#C/C(=C\c1ccc(Cl)cc1)c1nc2ccccc2c(=O)[nH]1`, the TGI is above 100 µM in the assay on ACHN renal; 69.2 µM in the assay on BT-549 breast; above 100 µM with HOP-62 NSCLC; 39.9 µM in the assay with HOP-92 NSCLC; above 100 µM with K-562 leukemia; above 100 µM in the assay with OVCAR-5 ovarian. Further, the TGI in the assay on SK-MEL-2 melanoma, in the assay with SK-MEL-5 melanoma, with SK-OV-3 ovarian and with UACC-62 melanoma was above 100 µM in each case.

`O=c1cc(-c2ccc(O)c(O)c2)oc2cc(OC3OC(CO)C(O)C(O)C3O)cc(O)c12` (stereo not drawn): the TGI in the assay on ACHN renal, in the assay on BT-549 breast, in the assay with HOP-62 NSCLC, in the assay with HOP-92 NSCLC, with OVCAR-3 ovarian and in the assay with OVCAR-5 ovarian was above 100 µM each time. The TGI in the assay on SK-MEL-2 melanoma, in the assay with SK-MEL-5 melanoma, with SK-OV-3 ovarian and with UACC-62 melanoma was above 100 µM throughout.
